Source: paper PMC8289188, “Polyoxometalates as Effective Nano-inhibitors of Amyloid Aggregation of Pro-inflammatory S100A9 Protein Involved in Neurodegenerative Diseases” (ACS Applied Materials & Interfaces, 2021)
Where two headings read alike, the source gives them in different places.

Key:
[1] = target: T1, S100A9 (Homo sapiens, UniProt P06702); assay: intrinsic Trp88 fluorescence titration; ANS fluorescence titration gave Kd […]; ThT/AFM amyloid inhibition; type: binding
T1 construct: native S100A9 expressed in Escherichia coli
T1 sequence (P06702 1-114): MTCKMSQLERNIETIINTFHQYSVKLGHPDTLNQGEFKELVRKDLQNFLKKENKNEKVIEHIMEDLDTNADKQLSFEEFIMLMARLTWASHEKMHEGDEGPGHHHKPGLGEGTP

[2] = target: T1, S100A9; assay: as above; type: binding; remark: listed apart in the source

| Kd [1] | Kd [2] | Substance |
| --- | --- | --- |
| 2.48 ± 0.2 µM | – | TiNb9 |
| – | 2.86 ± 0.39 µM | Nb10 |
